Results taken from paper PMC5773580, “A synthetic combinatorial approach to disabling deviant Hedgehog signaling” (Scientific Reports, 2018).
Several values for one entry are separate records, joined by “and”; a condition that tells them apart may be missing. Equal values may be shown once.

How the values were obtained:
[1] = tested on: SMO-L412F in NIH3T3 (GLI-BS reporter); assay: GLI-BS reporter assay, NIH3T3 cells with SMO-L412F DNA; type: cell-based; conditions: Mus musculus
Experimental: (§1) The HH-responsive firefly luciferase reporter (GLI-BS) and a control Renilla luciferase reporter (SV40-RL) were transfected into indicated cell lines using Effectene (Qiagen) either alone or with indicated DNAs. 24 hrs after transfection, cells were switched to low serum media (3% calf serum), and grown for another 48 hrs. in 5% CO2 in the presence/absence of compounds. 3T3-ShhFL cell line that stably expressing SHH and the two reporters were cultured in a similar fashion. FL and RL activities in lysate generated using Passive Lysis Buffer (Promega) were then assessed using the Dual-Luciferase kit (Promega) and a 96-well plate reading luminometer (BMG). The ratio of FL/RL was calculated and the averaged ratios from three replicates were reported.

[2] = target: T1, HDAC9 (Homo sapiens, UniProt Q9UKV0); assay: In vitro HDAC profiling (deacetylation assay), HDAC9; type: biochemical; conditions: for HDAC Activity (Fluorescent counts): Repeat1/Repeat 2
T1 construct: purchased BPS Bioscience #50051-11
T1 sequence (Q9UKV0 whole entry): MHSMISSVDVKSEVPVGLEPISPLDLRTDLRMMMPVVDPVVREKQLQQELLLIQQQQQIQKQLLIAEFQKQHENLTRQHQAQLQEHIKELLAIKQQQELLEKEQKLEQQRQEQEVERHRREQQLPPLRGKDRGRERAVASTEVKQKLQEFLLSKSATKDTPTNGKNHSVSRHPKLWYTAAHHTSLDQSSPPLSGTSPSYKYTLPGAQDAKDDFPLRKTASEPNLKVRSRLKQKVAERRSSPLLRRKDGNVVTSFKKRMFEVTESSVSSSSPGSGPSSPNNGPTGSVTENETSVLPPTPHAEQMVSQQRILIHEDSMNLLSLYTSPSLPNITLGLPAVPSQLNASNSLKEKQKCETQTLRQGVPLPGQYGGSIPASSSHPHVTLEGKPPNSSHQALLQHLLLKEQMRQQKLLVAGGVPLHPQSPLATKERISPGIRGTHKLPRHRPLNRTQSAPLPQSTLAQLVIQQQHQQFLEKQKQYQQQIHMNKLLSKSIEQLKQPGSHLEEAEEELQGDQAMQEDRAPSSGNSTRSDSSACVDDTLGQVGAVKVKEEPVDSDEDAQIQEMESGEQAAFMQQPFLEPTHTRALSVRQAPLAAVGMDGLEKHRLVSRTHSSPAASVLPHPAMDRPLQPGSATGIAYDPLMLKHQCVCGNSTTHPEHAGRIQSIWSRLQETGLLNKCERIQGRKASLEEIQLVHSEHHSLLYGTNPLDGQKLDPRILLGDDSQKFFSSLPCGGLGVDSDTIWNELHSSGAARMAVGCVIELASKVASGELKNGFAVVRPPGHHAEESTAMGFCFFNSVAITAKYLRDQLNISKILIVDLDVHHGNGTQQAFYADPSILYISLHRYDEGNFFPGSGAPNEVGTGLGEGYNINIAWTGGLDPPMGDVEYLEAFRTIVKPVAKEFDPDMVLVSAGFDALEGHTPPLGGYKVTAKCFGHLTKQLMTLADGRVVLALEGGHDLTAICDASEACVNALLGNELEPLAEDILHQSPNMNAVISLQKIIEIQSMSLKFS
Experimental: (§2) HDAC profiling was performed at BPS Bioscience (San Diego, CA). All of the compounds are dissolved in DMSO. A series of dilutions of the compounds were prepared with 10% DMSO in HDAC assay buffer (#50031) and 5 µl of the dilution was added to a 50 µl reaction so that the final concentration of DMSO is 1% in all of reactions. All of the enzymatic reactions were conducted in duplicate at 37 °C for 30 mins, except that the enzyme reactions for HDAC11 were at room temperature for 3 hrs. All of the reactions were performed in a 50 µl mixture containing HDAC assay buffer, 5 µg BSA, an HDAC substrate [HDAC Substrate 3 (BPS number 50037) or HDAC Class 2a Substrate 1 (BPS number 50040)], an HDAC enzyme (#50051-11) and a test compound. After enzymatic reactions, 50 μl of HDAC Developer (#50030) was added to each well and the plate was incubated at room temperature for an additional 20 mins. Fluorescence intensity was measured at an excitation of 360 nm and an emission of 460 nm using a Tecan Infinite M1000 microplate reader. HDAC activity assays were performed in duplicates at each concentration. The fluorescent intensity data were analyzed using the computer software, Graphpad Prism. In the absence of the compound, the fluorescent intensity (Ft) in each data set was defined as 100% activity. In the absence of HDAC, the fluorescent intensity (Fb) in each data set was defined as 0% activity. The percent activity in the presence of each compound was calculated according to the following equation: %activity = (F − Fb)/(Ft − Fb), where F = the fluorescent intensity in the presence of the compound. The values of % activity versus a series of compound concentrations were then plotted using non-linear regression analysis of Sigmoidal dose-response curve generated with the equation Y = B + (T − B)/1 + 10((LogIC50 − X) × Hill Slope), where Y = percent activity, B = minimum percent activity, T = maximum percent activity, X = logarithm of compound and Hill Slope = slope factor or Hill coefficient. The IC50 value was determined by the concentration causing a half-maximal percent activity.

[3] = tested on: HDAC activity (acetylated tubulin) in NIH-3T3 cells; assay: Acetylation assay, Western blot of acetylated tubulin; type: cell-based; conditions: 48hrs
Experimental: For analyzing acetylation status of histone 3 and tubulin, NIH3T3 cells were grown to confluence in 6-well plates. After 48hrs of treatment with indicated chemicals, cells were lysed in RIPA buffer or 1% NP40/phosphate buffered saline/protease inhibitors (SIGMA, #S8820), the lysate cleared using a microcentrifuge, then 6 × sample loading buffer (Bioland Scientific) added to the supernatant. Proteins were separated on SDS-PAGE (BioRad Criterion TGX Precast Gels). Antibodies used for analyzing the blots were: acetylated tubulin (SIGMA, #T6793), tubulin, acetyl-histone H3 (Lys23), and histone H3 (Cell Signaling Technology, #2125 S, #8848 and #9717, respectively). Chemiluminescence was detected using a Li-COR Odyssey Imaging System.

[4] = target: T2, HDAC8 (Homo sapiens, UniProt Q9BY41); assay: In vitro HDAC profiling (deacetylation assay), HDAC8; type: biochemical; conditions: for HDAC Activity (Fluorescent counts): Repeat1/Repeat 2
T2 construct: purchased BPS Bioscience #50051-11
T2 sequence (Q9BY41 1-377): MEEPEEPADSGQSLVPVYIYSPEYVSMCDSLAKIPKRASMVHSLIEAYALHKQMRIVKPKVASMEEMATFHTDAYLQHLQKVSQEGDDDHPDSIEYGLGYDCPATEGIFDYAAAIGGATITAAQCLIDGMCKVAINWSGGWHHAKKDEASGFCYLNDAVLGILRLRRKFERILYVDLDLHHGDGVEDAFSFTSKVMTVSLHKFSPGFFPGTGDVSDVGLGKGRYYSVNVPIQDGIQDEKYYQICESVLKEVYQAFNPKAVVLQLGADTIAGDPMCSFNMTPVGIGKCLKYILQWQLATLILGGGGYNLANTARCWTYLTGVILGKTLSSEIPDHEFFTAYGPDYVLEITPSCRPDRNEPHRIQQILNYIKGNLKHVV
Experimental: as §2

[5] = tested on: SHH-induced GLI activity (GLI-BS reporter) in NIH3T3; assay: HH pathway reporter (GLI-BS reporter) assay, +Shh in NIH3T3; type: cell-based; conditions: Mus musculus; +Shh in NIH3T3, 48 hrs with compound
Experimental: as §1

[6] = in vitro deacetylation assay, duplicates

With `O=C(CCCCCCC(=O)Nc1ccc(Cl)c(C(=O)Nc2ccc(NC(=O)c3cc(Cl)ccc3Cl)cc2)c1)NO` [IHR-SAHA] as the compound, how does the IC50 [1] read?
Its IC50 is 140 nM.

What about the “HDAC Activity (Fluorescent counts)” value ([2]; HDAC9, WW01 0 Log nM) of the same compound?
Its value is 15707 Fluorescent counts and 17505 Fluorescent counts.

What about the “HDAC Activity (Fluorescent counts)” value ([2]; HDAC9, WW01 0.5 Log nM) of the same compound?
The value was 15735 Fluorescent counts and 16677 Fluorescent counts.

And the “HDAC Activity (Fluorescent counts)” value ([2]; HDAC9, WW01 1 Log nM)?
The value was 15823 Fluorescent counts and 16968 Fluorescent counts.

And the “HDAC Activity (Fluorescent counts)” value ([2]; HDAC9, WW01 1.5 Log nM)?
The value was 15598 Fluorescent counts and 16390 Fluorescent counts.

What about the “HDAC Activity (Fluorescent counts)” value ([2]; HDAC9, WW01 2 Log nM) of the same compound?
Its value is 15941 Fluorescent counts and 16116 Fluorescent counts.

What about the “HDAC Activity (Fluorescent counts)” value ([2]; HDAC9, WW01 2.5 Log nM) of the same compound?
Its value is 14685 Fluorescent counts and 15111 Fluorescent counts.

What about the “HDAC Activity (Fluorescent counts)” value ([2]; HDAC9, WW01 3 Log nM) of the same compound?
The value was 14898 Fluorescent counts and 14972 Fluorescent counts.

What about the “HDAC Activity (Fluorescent counts)” value ([2]; HDAC9, WW01 3.5 Log nM) of the same compound?
Its value is 13364 Fluorescent counts and 15040 Fluorescent counts.

What about the “HDAC Activity (Fluorescent counts)” value ([2]; HDAC9, WW01 4 Log nM) of the same compound?
The value was 14972 Fluorescent counts and 13303 Fluorescent counts.

What about the “HDAC Activity (Fluorescent counts)” value ([2]; HDAC9, WW01 -0.5 Log nM) of the same compound?
Its value is 15619 Fluorescent counts and 16563 Fluorescent counts.

And the IC50 [2, 6]?
The IC50 was over 10000 nM.

What about the “HDAC inhibitory activity, acetylated tubulin accumulation (ratio to total tubulin), compared with SAHA” value [3] of the same compound?
Its value is “increase in anti-HDAC activity”.

What about the “HDAC Activity (Fluorescent counts)” value ([4]; HDAC8, WW01 0 Log nM) of the same compound?
Its value is 21093 Fluorescent counts and 21821 Fluorescent counts.

What about the “HDAC Activity (Fluorescent counts)” value ([4]; HDAC8, WW01 0.5 Log nM) of the same compound?
The value was 22364 Fluorescent counts and 22102 Fluorescent counts.

What about the “HDAC Activity (Fluorescent counts)” value ([4]; HDAC8, WW01 1 Log nM) of the same compound?
The value was 22562 Fluorescent counts and 22110 Fluorescent counts.

And the “HDAC Activity (Fluorescent counts)” value ([4]; HDAC8, WW01 1.5 Log nM)?
The value was 21528 Fluorescent counts and 20488 Fluorescent counts.

And the “HDAC Activity (Fluorescent counts)” value ([4]; HDAC8, WW01 2 Log nM)?
Its value is 18696 Fluorescent counts and 20642 Fluorescent counts.

What about the “HDAC Activity (Fluorescent counts)” value ([4]; HDAC8, WW01 2.5 Log nM) of the same compound?
Its value is 20242 Fluorescent counts and 19075 Fluorescent counts.

What about the “HDAC Activity (Fluorescent counts)” value ([4]; HDAC8, WW01 3 Log nM) of the same compound?
Its value is 18387 Fluorescent counts and 19845 Fluorescent counts.

And the “HDAC Activity (Fluorescent counts)” value ([4]; HDAC8, WW01 3.5 Log nM)?
Its value is 17109 Fluorescent counts and 19683 Fluorescent counts.

What about the “HDAC Activity (Fluorescent counts)” value ([4]; HDAC8, WW01 4 Log nM) of the same compound?
Its value is 16686 Fluorescent counts and 18294 Fluorescent counts.

And the “HDAC Activity (Fluorescent counts)” value ([4]; HDAC8, WW01 -0.5 Log nM)?
Its value is 19254 Fluorescent counts and 22456 Fluorescent counts.

And the IC50 [4, 6]?
Its IC50 is over 10000 nM.

What about the IC50 [5] of the same compound?
Its IC50 is 3 nM.
